Laboratory results: patent US11952432B2, “Cell-permeable stapled peptide modules for cellular delivery” (Dana-Farber Cancer Institute, Inc., priority 2018, dated 2024)
Entries after “also recorded” stand apart in the source; their conditions may differ. Bridge positions count the residues as written; N and C are the ends. Square brackets hold non-standard residues; d marks the D form. Ends that are not written are not given here. R8 = C=CCCCCCC[C@@](C)(N)C(=O)O; S5 = C=CCCC[C@](C)(N)C(=O)O; Nle = CCCC[C@H](N)C(=O)O; CycB = not defined here; βAla = NCCC(=O)O

What was measured:
[1] = tested on: cells; assay: Cellular uptake and intracellular distribution of TAMRA-labeled peptides by fluorescence microscopy; conditions: for Distribution/Observations: TAMRA-labeled peptides 10 μM, approximately 1 hour incubation, fluorescence microscope
From the text: In Vitro Cell Uptake Assays: To assess cellular uptake of cargoes that are bound to cell-permeable stapled peptide modules, fluorescent tracers (e.g. TAMRA, FITC) are attached to the cell-permeable stapled peptide modules or the cargos. The cellular uptake can be tracked by, e.g., epifluorescence microscopy, fluorescence microscopy, confocal microscopy, and/or flow cytometry, at different time periods. In this manner, the rate of uptake and the intracellular distribution patterns of the stabilized peptides (e.g., CPSPs and CPSP-conjugates, other cell-permeable stapled peptides) can also be determined.
CPSP1-CPSP9 and L-CPSP (where L is an F-actin staining peptide) were labeled with a fluorescent dye, TAMRA. […] These TAMRA-labeled peptides (10 μM) were added to cell culture. After incubating the peptides with the cells for approximately 1 hour, the cells were examined by a fluorescence microscope.
Furthermore, TAMRA-labeled CPSP3 (SEQ ID NO: 14) (10 μM) and MitoTracker were both added to the cell culture.

[2] = tested on: mitochondria of the treated cells; assay: Co-labeling of TAMRA-labeled CPSP3 with MitoTracker; format: cell-based; conditions: 10 μM (FIG. 2); listed as TAMRA-labeled CPSP3
[3] = biological target: T1, MCL-1 (Homo sapiens, UniProt Q07820); assay: Intracellular binding assay: colocalization with expressed MCL-1 ectopically targeted to the nuclear lamina; format: cell-based; conditions: colocalization at nuclear lamina with ectopically targeted MCL-1 (FIG. 5)
T1 construct: expressed in transfected cells
From the text: Intracellular binding Assays: To assess the binding of the CPSP-fusions to their respective protein target(s), cells were transfected with a GFP binding nanobody fraction coupled to nuclear lamina binding sequence (lamin B1). This nanobody binds to GFP tagged proteins and recruits them to the nuclear lamina allowing the recruitment and visualization of proteins interacting with the GFP tagged protein of interest. For example, GFP-MCL-1 can be expressed and localized to the nuclear lamina, followed by treatment of cells with TAMRA-labeled ATSP-7041/MCL-1 SAHBD fusion, followed by confocal microscopy imaging to monitor for the colocalization of TAMRA-labeled CPSP fusion at the nuclear lamina.

[4] = conjugated to CPSP3, 10 μM (FIG. 3B)

T1 sequence (Q07820 whole entry, species assumed): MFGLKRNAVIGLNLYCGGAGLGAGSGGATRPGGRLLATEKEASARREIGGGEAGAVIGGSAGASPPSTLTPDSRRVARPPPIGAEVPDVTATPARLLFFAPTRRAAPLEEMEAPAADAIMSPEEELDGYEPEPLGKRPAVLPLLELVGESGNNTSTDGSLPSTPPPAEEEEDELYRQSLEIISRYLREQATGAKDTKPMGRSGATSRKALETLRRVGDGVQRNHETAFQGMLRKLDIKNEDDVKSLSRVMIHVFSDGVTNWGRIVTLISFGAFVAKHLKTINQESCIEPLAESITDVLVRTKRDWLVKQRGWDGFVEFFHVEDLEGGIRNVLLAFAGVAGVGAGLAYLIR

Row | Substance | Distribution/Observations [1] | also measured
1 | * Ba X R r R X R B G B R X R r R X (SEQ ID NO: 19) [TAMRA-CPSP8] | Cytosol; Nucleus; Nucleolus; Endosomes; lysosomes | –
2 | * Ba X R r R X R (SEQ ID NO: 12) [TAMRA-CPSP1] | Cytosol; Nucleus; Nucleolus; Endosomes; lysosomes | –
3 | * Ba XRrRXRB-GZG-EALKKALRRHRFLWQR RQRA (SEQ ID NO: 63) ([βAla][S5]R[dR]R[S5]R[Nle]G[βAla]GEALKKALRRHRFLWQRRQRA; not fully specified (N-terminus, bridges); bridges not given here; also: TAMRA label) [TAMRA-CPSP3/vMIA] | – | intracellular delivery ([1]; 10 μM, 1 h (FIG. 7, bottom panel)): robust intracellular delivery
4 | Ac B G V A D L I K K F E X I A K X E K* G G G G G X R r R X R B (SEQ ID NO: 21) (Ac-[Nle]GVADLIKKFE[S5]IAK[S5]EK(TAMRA)GGGGG[S5]R[dR]R[S5]R[Nle]; not fully specified (bridges); bridges not given here) [TAMRA-L-CPSP3] | Cytosol; Nucleus; Nucleolus; Endosomes; lysosomes;; also recorded: Actin filaments | delivery of the peptide into the cell [1, 4]: robust delivery of the peptide into the cell; intracellular localization [1, 4]: notable localization of L-CPSP3 to actin filaments
5 | * Ba X R r R X Naph (SEQ ID NO: 17) [TAMRA-CPSP6] | Cytosol; Nucleus; Nucleolus; Endosomes; lysosomes | –
6 | * Ba X R r R X R B G X R r R X R B (SEQ ID NO: 20) [TAMRA-CPSP9] | Cytosol; Nucleus; Nucleolus; Endosomes; lysosomes | –
7 | * Ba X R r R X (SEQ ID NO: 13) [TAMRA-CPSP2] | Cytosol; Nucleus; Nucleolus; Endosomes; lysosomes | –
8 | * Ba X R r R X R B (SEQ ID NO: 14) [TAMRA-CPSP3] | CPSP3 were enriched at mitochondria as well as Cytosol;; also recorded: Nucleus; Nucleolus; Endosomes; lysosomes | enrichment at the mitochondria (co-labeling with MitoTracker) [2]: Enrichment of TAMRA-labeled CPSP3 at the mitochondria
9 | * Ba X R r R X B (SEQ ID NO: 15) [TAMRA-CPSP4] | Cytosol; Nucleus; Nucleolus; Endosomes; lysosomes | –
10 | * Ba R K A L E T L R R V B D G V X R N H X T A F G G G G G L T F 8 E Y W A Q CycB X S A A (SEQ ID NO: 22) ([βAla]RKALETLRRV[Nle]DGV[S5]RNH[S5]TAFGGGGGLTF[R8]EYWAQ[CycB][S5]SAA; staple 16-20, 32-39 (inferred); reading uncertain; also: TAMRA label) [TAMRA-labeled MCL-1 SAHBD/ATSP-7041] | – | delivery to the cytosol of treated cells ([1]; 4 μM, 4 hours (FIG. 1, FIGS. 4A-B)): efficiently delivered to the cytosol; intracellular engagement of MCL-1 [3]: colocalization of the fusion to the nuclear lamina; intracellular engagement of MCL-1 ([3]; listed as CPSP-MCL-1 SAHBD conjugate): retains the capacity to engage its intracellular target
11 | * Ba X R r R X R Naph (SEQ ID NO: 16) [TAMRA-CPSP5] | Cytosol; Nucleus; Nucleolus; Endosomes; lysosomes | –
12 | * Ba LTF8EYWAQ CycB XSAAAGGGGGK (SEQ ID NO: 61) -[GCCTAGTTTATCACCAATAAT] (SEQ ID NO: 62) [TAMRA-ATSP-7041/PNA] | – | intracellular delivery ([1]; PNA fusion (FIG. 6)): robust intracellular delivery
13 | * Ba X R R R X R B (SEQ ID NO: 18) [TAMRA-CPSP7] | Cytosol; Nucleus; Nucleolus; Endosomes; lysosomes | –
